Results taken from patent US8952177B2 (Janssen Pharmaceutica NV, priority 2013, dated 2015).
Counter-ions that a name gives are not always drawn.

Legend:
human FLAP = human FLAP (Homo sapiens (Human), UniProt P20292); assay: FLAP binding assay (HTRF format); conditions: human FLAP-containing Sf-9 membranes, 25 nM HTRF ligand, 2 h; average of runs; read-out: FLAP Binding wild type HTRF Ki
Method in brief: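 His6-tagged human FLAP in Sf-9 membranes competed against a FITC-labelled indole FLAP modulator in HTRF format; 2 h reaction, read as HTRF ratio. Ki and IC50 from averaged duplicate ratios over 2–20 runs of two plates each; parenthetical numbers give run count.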

[1] = test system: leukotriene pathway in human whole blood (LTB4); assay: Human whole blood assay (LTB4 after calcium ionophore A23187 stimulation); format: cell-based; conditions: human whole blood diluted 1:1 in RPMI, 15 min pre-incubation, A23187 7 μg/mL for 30 min at 37° Celsius
Method in brief: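 Heparinised human whole blood, diluted 1:1 in RPMI, was preincubated with compound for 15 min at 37° C. before stimulation with A23187 (7 μg/mL) for 30 min. Plasma LTB4 was measured by immunoassay kit and IC50 obtained by 4-parameter fit; single replicate per plate, blood from at least one donor.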

Sequence of human FLAP (P20292 whole entry): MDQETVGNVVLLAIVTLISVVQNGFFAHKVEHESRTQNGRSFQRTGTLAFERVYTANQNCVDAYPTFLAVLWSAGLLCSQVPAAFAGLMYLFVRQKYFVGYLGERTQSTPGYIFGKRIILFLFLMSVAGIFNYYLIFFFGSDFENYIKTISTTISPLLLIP

Row | Structure (SMILES) | Ki (human FLAP) | IC50 ([1]; Homo sapiens) | IC50 [1]
1 | Cc1cnc(COc2ccc3nc([C@@H]4[C@H](C(=O)O)C4(C)C)n(Cc4ccc(Br)cc4)c3c2)c(F)c1 (racemic) [Example 132, racemic cis-3-{1-(4-Bromobenzyl)-6-[(3-fluoro-5-methylpyridin-2-yl)methoxy]-1H-benzimidazol-2-yl}-2,2-dimethylcyclopropanecarboxylic acid] | 2.9 nM | 270 nM | 
2 | CCC(CC)(Cc1nc2c(F)cc(OCc3ccc(C)cn3)cc2n1Cc1ccc(C)cc1)C(=O)O [Example 71, 2-Ethyl-2-({4-fluoro-1-(4-methylbenzyl)-6-[(5-methylpyridin-2-yl)methoxy]-1H-benzimidazol-2-yl}methyl)butanoic acid as the TFA salt] | 49 nM | 3350 nM | 
3 | Cc1cnc(COc2ccc3nc(CC(C)(C)C(=O)O)n(Cc4ccc(Br)cc4)c3c2)c(F)c1 [Example 128, 3-{1-(4-Bromobenzyl)-6-[(3-fluoro-5-methylpyridin-2-yl)methoxy]-1H-benzimidazol-2-yl}-2,2-dimethylpropanoic acid] | 8.5 nM | 1320 nM | 
4 | Cc1cc(Cn2c([C@@H]3CCCC[C@@H]3C(=O)O)nc3ccc(OCc4ccn(C)n4)cc32)ccc1OC(F)(F)F (racemic) [Example 106, racemic cis-2-{6-[(1-Methyl-1H-pyrazol-3-yl)methoxy]-1-[3-methyl-4-(trifluoromethoxy)benzyl]-1H-benzimidazol-2-yl}cyclohexanecarboxylic acid as the HCl salt] | 5.4 nM | 1160 nM | 
5 | Cc1ccc(COc2ccc3nc([C@@H]4CCCC[C@@H]4C(=O)O)n(Cc4ccc(OC(F)(F)F)cc4C)c3c2)nc1 (racemic) [Example 100, racemic cis-2-{6-[(5-Methylpyridin-2-yl)methoxy]-1-[2-methyl-4-(trifluoromethoxy)benzyl]-1H-benzimidazol-2-yl}cyclohexanecarboxylic acid] | 19 nM | 2540 nM | 
6 | Cn1ccc(COc2cc(F)c3nc(C4CCCC[C@@H]4C(=O)O)n(Cc4ccc(N5CC(F)(F)C5)cc4)c3c2)n1 (mixture of isomers) [Example 168, racemic cis-2-{1-[4-(3,3-Difluoroazetidin-1-yl)benzyl]-4-fluoro-6-[(1-methyl-1H-pyrazol-3-yl)methoxy]-1H-benzimidazol-2-yl}cyclohexanecarboxylic acid as the formate salt] | 7.8 nM |  | 3570 nM
7 | Cn1cc(Cl)c(COc2ccc3nc([C@@H]4CCCC[C@@H]4C(=O)O)n(Cc4ccc(OC(F)(F)F)cc4F)c3c2)n1 (racemic) [Example 83, racemic cis-2-{6-[(4-Chloro-1-methyl-1H-pyrazol-3-yl)methoxy]-1-[2-fluoro-4-(trifluoromethoxy)benzyl]-1H-benzimidazol-2-yl}cyclohexanecarboxylic acid] | 4.2 nM | 350 nM | 
8 | Cc1ccc(COc2ccc3nc(C4CCCC[C@@H]4C(=O)O)n(Cc4ccc(C#N)cc4)c3c2)nc1 (mixture of isomers) [Example 18, racemic trans-2-{1-(4-Cyanobenzyl)-6-[(5-methylpyridin-2-yl)methoxy]-1H-benzimidazol-2-yl}cyclohexanecarboxylic acid as the TFA salt] | 53 nM | > 10000 nM | 
9 | Cc1cc(OC(F)(F)F)ccc1Cn1c([C@@H]2CCCC[C@@H]2C(=O)O)nc2ccc(OCc3ccn(C)n3)cc21 (racemic) [Example 99, racemic cis-2-{6-[(1-Methyl-1H-pyrazol-3-yl)methoxy]-1-[2-methyl-4-(trifluoromethoxy)benzyl]-1H-benzimidazol-2-yl}cyclohexanecarboxylic acid] | 18 nM | 1060 nM | 
10 | Cn1ccc(COc2cc(F)c3nc([C@H]4CCCC[C@H]4C(=O)O)n(Cc4ccc(OC(F)(F)F)cc4F)c3c2)n1 (racemic) [Example 96, racemic cis-2-{4-Fluoro-1-[2-fluoro-4-(trifluoromethoxy)benzyl]-6-[(1-methyl-1H-pyrazol-3-yl)methoxy]-1H-benzimidazol-2-yl}cyclohexanecarboxylic acid as the HCl salt] | 7 nM | 810 nM | 
11 | Cn1ccc(COc2ccc3nc([C@@H]4CCCC[C@@H]4C(=O)O)n(Cc4ccc(N5CC(F)(F)C5)cc4)c3c2)n1 (racemic) [Example 89, racemic cis-2-{1-[4-(3,3-Difluoroazetidin-1-yl)benzyl]-6-[(1-methyl-1H-pyrazol-3-yl)methoxy]-1H-benzimidazol-2-yl}cyclohexanecarboxylic acid] | 32 nM | 3610 nM | 
12 | Cc1ccc(COc2ccc3nc([C@@H]4CCCC[C@@H]4C(=O)O)n(Cc4ccc(OC(F)(F)F)cc4Cl)c3c2)nc1 (racemic) [Example 101, racemic cis-2-{1-[2-Chloro-4-(trifluoromethoxy)benzyl]-6-[(5-methylpyridin-2-yl)methoxy]-1H-benzimidazol-2-yl}cyclohexanecarboxylic acid as the HCl salt] | 21 nM | 900 nM | 
13 | Cn1ccc(COc2cc(F)c3nc([C@@H]4CCCC[C@@H]4C(=O)O)n(Cc4ccc(OC(F)(F)F)cc4)c3c2)n1 (racemic) [Example 95, racemic cis-2-{4-Fluoro-6-[(1-methyl-1H-pyrazol-3-yl)methoxy]-1-[4-(trifluoromethoxy)benzyl]-1H-benzimidazol-2-yl}cyclohexanecarboxylic acid as the HCl salt] | 3.6 nM | 1350 nM | 

Further lines, with some results ahead:

Row | Ki (human FLAP) | IC50 ([1]; Homo sapiens) | Structure (SMILES) | IC50 [1]
14 | 210 nM | 930 nM | CCC(CC)(Cc1nc2ccc(OCc3ccn(C)n3)cc2n1Cc1ccc(N2CCC(C(F)(F)F)CC2)cc1)C(=O)O [Example 190, 2-ethyl-2-((6-((1-methyl-1H-pyrazol-3-yl)methoxy)-1-(4-(4-(trifluoromethyl)piperidin-1-yl)benzyl)-1H-benzo[d]imidazol-2-yl)methyl)butanoic acid] | 
15 | 24 nM | 3930 nM | Cc1cnc(COc2ccc3nc(CC(C)(C)C(=O)O)n(Cc4ccc(OC(F)(F)F)cc4F)c3c2)c(F)c1 [Example 131, 3-{6-[(3-Fluoro-5-methylpyridin-2-yl)methoxy]-1-[2-fluoro-4-(trifluoromethoxy)benzyl]-1H-benzimidazol-2-yl}-2,2-dimethylpropanoic acid] | 
16 | 0.66 nM | 91 nM | Cc1cnc(COc2ccc3nc([C@H]4CCCC[C@H]4C(=O)O)n(Cc4c(F)cc(-c5ccc(C(F)(F)F)cc5)cc4F)c3c2)c(F)c1 (racemic) [Example 137, racemic cis-2-(1-((3,5-difluoro-4′-(trifluoromethyl)-[1,1′-biphenyl]-4-yl)methyl)-6-((3-fluoro-5-methylpyridin-2-yl)methoxy)-1H-benzo[d]imidazol-2-yl)cyclohexanecarboxylic acid] | 
17 | 150 nM | 2110 nM | Cc1ccc(Cn2c([C@@H]3[C@H](C(=O)O)C3(C)C)nc3ccc(OCc4ccc(C)cn4)cc32)cc1 (racemic) [Example 121, racemic cis-2,2-Dimethyl-3-{1-(4-methylbenzyl)-6-[(5-methylpyridin-2-yl)methoxy]-1H-benzimidazol-2-yl}cyclopropanecarboxylic acid] | 
18 | 0.42 nM | 110 nM | Cc1cnc(COc2ccc3nc([C@H]4CCCC[C@H]4C(=O)O)n(Cc4ccc(N5CCC(F)CC5)cc4)c3c2)c(F)c1 (relative stereo) [Example 176, (1R*,2S*)-2-{6-[(3-Fluoro-5-methylpyridin-2-yl)methoxy]-1-[4-(4-fluoropiperidin-1-yl)benzyl]-1H-benzimidazol-2-yl}cyclohexanecarboxylic acid] | 
19 | 7.4 nM | 980 nM | Cc1cnc(COc2ccc3nc(CC(C)(C)C(=O)O)n(Cc4ccc(-c5ccc(C(F)(F)F)cc5)cc4)c3c2)c(F)c1 [Example 142, 3-(6-[(3-Fluoro-5-methylpyridin-2-yl)methoxy]-1-{[4′-(trifluoromethyl)biphenyl-4-yl]methyl}-1H-benzimidazol-2-yl)-2,2-dimethylpropanoic acid] | 
20 | 11 nM | 480 nM | CCC(CC)(Cc1nc2ccc(OCc3ncc(C)cc3F)cc2n1Cc1ccc(N2CCC(F)CC2)cc1)C(=O)O [Example 182, 2-Ethyl-2-({6-[(3-fluoro-5-methylpyridin-2-yl)methoxy]-1-[4-(4-fluoropiperidin-1-yl)benzyl]-1H-benzimidazol-2-yl}methyl)butanoic acid] | 
